Converted amounts (≈) assume the structure as drawn. Where a SMILES comes first, the peptide text is derived from it. Where no end group is shown, it is not given here. [ ]: non-standard residue; d: D form. The star is where a group is joined. Orn(α-tetramethylguanidino) = CN(C)C(=N[C@@H](CCCN)C(=O)*)N(C)C; Orn = NCCC[C@H](N)C(=O)O
How the values were obtained:
E. coli BL21 AI = tested on: E. coli BL21 AI
Procedure: The induction of resistance strains was determined according to the macro dilution method under NCCLS-conditions (National Committee for Clinical Laboratory Standards—now Clinical and Laboratory Standards Institute Wayne, Pa., USA, NCCLS-Guideline, M7-A5, Vol. 20, Nr. 2; 2000).
Firstly, minimal inhibition concentrations (MIC) were determined for the peptides to be examined as described in example 3.2. To determine induction of resistance continued dilutions of the peptide with concentrations ranging from 3 fold to 4 fold above to below the MIC were chosen. The test was performed in sterile 96-well microtiter plates with round bottoms (Polystyrene, U-bottom, Greiner Bio-One GmbH, Germany) and 200 μL final volume per well. The freeze-dried peptide or peptide derivatives were dissolved in water and diluted in respect to the MIC in 1% TSB (tryptic soy broth) to obtain a volume of 100 μL. […] The dilutions within the series were twofold.
The bacteria, E. coli BL21 AI, were grown overnight at 37° C. in nutrient broth (NB, Carl Roth GmbH+Co. KG, Karlsruhe, Germany) and diluted to 5×10^6 colony forming units (CFU)/mL in 1% TSB. To start the assay 100 μL of the bacteria dilution was added per well of the microtiter plate loaded with peptide. After incubating the plates for 24 h at 37° C., the absorption was determined at 595 nm using a TECAN microtiter plate reader (Tecan, Germany).
MIC values were calculated as described in example 3.2. The test was repeated using new dilution series with peptide concentrations adapted to the new determined MIC values and using the bacteria culture that grew despite the presence of the inhibitory peptide. This bacteria culture (1st passage) was diluted to 5×10^6 CFU/mL in 1% TSB. […] The test was repeated again with using new dilution series with peptide concentrations adapted to the new determined MIC values and using the bacteria culture that grew despite the presence of the inhibitory peptide (2nd passage). The same procedure was applied for about 8 further passages.
As a control a untreated E. coli BL21 AI culture was chosen and passaged without inhibitory peptides. All peptides and peptide derivatives were measured in triplicates. The number of passages was chosen dependent on the rapidity of induction of resistance and commonly was 10 passages over 10 continuous days.

[1] = cited from earlier work
B. subtilis 347 = type: cell-based, Bactillus subtillis; settings: 347, 20 h
In short: (§1)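 Bacteria grown overnight in NB at 37° C. were adjusted to 5×10^6 CFU/mL in 1% TSB and mixed 1:1 with a two-fold peptide series (final 125 μg/mL–60 ng/mL). After 20 hrs at 37° C., A595 was read; triplicates.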

S. typhi S5 = type: cell-based, Salmonella typhi; settings: S5, 20 h
In short: (§2)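 Two-fold serial broth microdilution in 1% TSB, final peptide 125 μg/mL down to 60 ng/mL. Inoculum from overnight nutrient-broth cultures adjusted to 5×10^6 CFU/mL. After 20 hrs at 37° C., growth was read as absorbance at 595 nm; triplicates, sterile water as negative control.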

[2] = tested on: S. enterica subsp. Enterica serovar. typhi G10215 ATCC 700408; type: cell-based, Salmonella enterica; settings: ATCC 700408, 20 h
In short: as §2

K. pneumonia 681 = type: cell-based, Klebsiella pneumoniae; settings: 20 h
In short: as §1

M. luteus ATCC 10240 = type: cell-based, Micrococcus luteus; settings: ATCC 10240, 20 h
In short: as §1

E. coli D31 = type: cell-based, Escherichia coli; settings: D31, 20 h
In short: as §2

E. coli 1103 = type: cell-based, Escherichia coli; settings: 1103, 20 h
In short: as §1

E. coli 45849 = experiment: Growth inhibition assay (MIC); type: cell-based, Escherichia coli; settings: multidrug resistant strain; 1% TSB, 37° C., 20 hrs
In short: as §2

E. coli DC 2 = experiment: Growth inhibition assay (MIC); type: cell-based, Escherichia coli; settings: 1% TSB, 37° C., 20 hrs
In short: as §1

E. coli BL 21 AI = experiment: Growth inhibition assay (MIC); type: cell-based, Escherichia coli; settings: 1% TSB, 37° C., 20 hrs
In short: as §1

[3] = tested on: R. radiobatter ATCC 15955; experiment: Growth inhibition assay (MIC); type: cell-based, Rhizobium radiobacter; settings: multidrug resistant strain; 1% TSB, 37° C., 20 hrs
In short: as §2

Mycobacterium vaccae = type: cell-based; settings: 20 h
Procedure: The minimal inhibition concentrations (MIC) of the apidaecin-derived peptides and peptide-derivatives were determined by a growth inhibition assay using a serial peptide dilution in sterilized round-bottom 96-well plates (polystyrene, U-bottom, Greiner Bio-One GmbH) with a final volume of 100 μL per well. The bacteria, e.g., E. coli BL21 A1, were grown in nutrient broth (NB, Carl Roth GmbH+Co. KG, Karlsruhe, Germany) at 37° C. over night. To each well of the 96-well plate, 50 μL of the overnight culture adjusted to 5×10^6 CFU/mL in 1% TSB were added. Lyophilized peptides and peptidomimetics were dissolved in 1% TSB (tryptic soy broth) or water to give a final concentration of 250 μg/mL. Fifty μL of the peptide or peptidomimetics solution were added to the first well of a row on the plate and mixed. Fifty μL of the first well containing the peptide solution were transferred to the second well, mixed and again 50 μL transferred to the next well and so on. Thereby, a two-fold dilution series was obtained starting at 250 μg/mL in the first well down to 120 ng/mL in the 12th well of a row giving a final peptide or peptidomimetics concentration from 125 μg/mL (well 1) to 60 ng/mL (well 12). Plates were incubated at 37° C. for 20 hrs. The absorbance was measured at 595 nm using a TECAN micro plate spectrophotometer (Tecan, Germany). All peptides and peptidomimetics were measured in triplicates. Sterilized water was used as a negative control.
The bacteria strains were tested: • Eschericha coli 1103, 10233, BL 21 AI, DC 2, • Klebsiella pneumoniae 681, • Micrococcus luteus ATCC 10240, • Mycobacterium vaccae • Bactillus subtillis 347.

E. coli 10233 = type: cell-based, Escherichia coli; settings: 10233, 20 h
In short: as §1

K. Pneumonia 123132 = experiment: Growth inhibition assay (MIC); type: cell-based, Klebsiella pneumoniae; settings: multidrug resistant strain; 1% TSB, 37° C., 20 hrs
In short: as §2

[4] = tested on: K. Pneumonia K6, ATCC 700603; experiment: Growth inhibition assay (MIC); type: cell-based, Klebsiella pneumoniae; settings: multidrug resistant strain; 1% TSB, 37° C., 20 hrs
In short: as §2

in vitro = in vitro ADME, mouse; settings: 25% aqueous mouse serum, 37° C.; read-out: Half-life time
In short: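 Peptide or peptidomimetic (0.5 mg/mL aqueous stock) incubated in 25% pooled mouse serum at 37 °C, sampled at 0–6 h, in duplicate. Proteins precipitated with 15% TCA; supernatants neutralized and analyzed by RP-HPLC with 0.1% TFA. Degradation products identified by MALDI-TOF/TOF-MS.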

[5] = In vivo distribution of fluorescent-labelled peptide (imaging); set-up: species or system female Balb/c mice; settings: mice, 40 μg i.p., 60-65 min
Procedure: The in vivo distribution was measured in mice using fluorescent-labelled peptides derivatives.
Near-infrared absorbing fluorescent dye Dy675 (Dyomics GmbH, Jena, Germany) was activated with DIC and coupled to the N-terminus of the peptide derivatives after completion of the solid phase peptide synthesis (see example 1). Afterwards the peptides were cleaved with TFA and purified by RP-HPLC (see example 1).
Forty μg of the labelled peptide derivatives were injected subcutaneously (sc) or intra-peritional (ip) into shaved and isoflurane anesthetized female Balb/c mice. The animals were placed into the fluorescence microscope chamber under continuous isoflurane exposure. Fluorescence exposure pictures were taken with an IVIS microscope set to 695 nm emission wavelength at every minute in the first 10 min after peptide addition and every 5 min afterwards until 65 min.

Compound | MIC B. subtilis 347 (B. subtilis 347) [µg/mL] | MIC S. typhi S5 (S. typhi S5) [µg/mL] | MIC S. enterica subsp. Enterica serovar. typhi G10215 ATCC 700408 [2] [µg/mL] | induction of resistance (E. coli BL21 AI; 10 passages) | MIC K. pneumonia 681 (K. pneumonia 681) [µg/mL] | MIC M. luteus ATCC 10240 (M. luteus ATCC 10240) [µg/mL] | MIC E. coli D31 (E. coli D31) [µg/mL] | MIC E. coli 1103 (E. coli 1103) [µg/mL] | MIC E. coli 10233 (E. coli 10233) [µg/mL] | other results
H-GNNRPVYIPQPRPPHPRL-OH [SEQ ID No. 2, GNNRPVYIPQPRPPHPRL-OH, reference compound] | – | – | – | – | – | – | – | – | – | passage after which first resistance strains were obtained (E. coli BL21 AI; 10 passages): 2nd; MIC-value in the 10th passage (E. coli BL21 AI; 10th passage): 128 µg/mL
GNNRPVYIPQPRPPHPRL [apidaecin] | – | – | – | – | – | – | – | – | – | degradation in mammalian serum [1]: completely degradaded within one hour
CC[C@H](C)[C@H](NC(=O)[C@H](Cc1ccc(O)cc1)NC(=O)[C@@H](NC(=O)[C@@H]1CCCN1C(=O)[C@H](CCCNC(=N)N)NC(=O)[C@H](CC(N)=O)NC(=O)[C@H](CC(N)=O)NC(=O)[C@H](CCCN)N=C(N(C)C)N(C)C)C(C)C)C(=O)N1CCC[C@H]1C(=O)N[C@@H](CCCNC(=N)N)C(=O)N1CCC[C@H]1C(=O)N[C@@H](CCCNC(=N)N)C(=O)N1CCC[C@H]1C(=O)N1CCC[C@H]1C(=O)N[C@@H](Cc1c[nH]cn1)C(=O)N1CCC[C@H]1C(=O)N[C@@H](CCCNC(=N)N)C(=O)N[C@@H](CC(C)C)C(=O)O [compound 137] ({Orn(α-tetramethylguanidino)}-NNRPVYIPRPRPPHPRL-OH; N-terminus and C-terminus assumed) | 64 (≈ 27.9 µM) | <1 | <1 | no induction of resistance was observed at all | 2 (≈ 0.873 µM) | 8 (≈ 3.49 µM) | <1 | 8 (≈ 3.49 µM) | – | –
CC[C@H](C)[C@H](NC(=O)[C@H](Cc1ccc(O)cc1)NC(=O)[C@@H](NC(=O)[C@@H]1CCCN1C(=O)[C@H](CCCNC(=N)N)NC(=O)[C@H](CC(N)=O)NC(=O)[C@H](CC(N)=O)NC(=O)[C@@H](N)CCCN)C(C)C)C(=O)N1CCC[C@H]1C(=O)N[C@@H](CCCNC(=N)N)C(=O)N1CCC[C@H]1C(=O)N[C@@H](CCCNC(=N)N)C(=O)N1CCC[C@H]1C(=O)N1CCC[C@H]1C(=O)N[C@@H](Cc1c[nH]cn1)C(=O)N1CCC[C@H]1C(=O)N[C@@H](CCCNC(=N)N)C(=O)N[C@@H](CC(C)C)C(N)=O [compound 38] (H-[Orn]NNRPVYIPRPRPPHPRL-NH2) | 62.5 (≈ 28.5 µM) | <0.5 | 2 (≈ 0.912 µM) | – | 1.95 (≈ 0.889 µM) | 1.95 (≈ 0.889 µM) | 2 (≈ 0.912 µM) | 3.91 (≈ 1.78 µM) | 1.95 (≈ 0.889 µM) | MIC E. coli 45849 (E. coli 45849): 0.5 µg/mL (≈ 0.228 µM); MIC E. coli DC 2 (E. coli DC 2): 0.98 µg/mL (≈ 0.447 µM); MIC E. coli BL 21 AI (E. coli BL 21 AI): 1.95 µg/mL (≈ 0.889 µM); MIC R. radiobatter ATCC 15955 [3]: 1.3 µg/mL (≈ 0.593 µM); MIC Mycobacterium vaccae (Mycobacterium vaccae): 125 µg/mL (≈ 57 µM); MIC K. Pneumonia 123132 (K. Pneumonia 123132): 2 µg/mL (≈ 0.912 µM); MIC K. Pneumonia K6, ATCC 700603 [4]: 4 µg/mL (≈ 1.82 µM)
CC[C@H](C)[C@H](NC(=O)[C@H](Cc1ccc(O)cc1)NC(=O)[C@@H](NC(=O)[C@@H]1CCCN1C(=O)[C@H](CCCNC(=N)N)NC(=O)[C@H](CC(N)=O)NC(=O)[C@H](CC(N)=O)NC(=O)[C@H](CCCN)N=C(N(C)C)N(C)C)C(C)C)C(=O)N1CCC[C@H]1C(=O)N[C@@H](CCCNC(=N)N)C(=O)N1CCC[C@H]1C(=O)N[C@@H](CCCNC(=N)N)C(=O)N1CCC[C@H]1C(=O)N1CCC[C@H]1C(=O)N[C@@H](Cc1c[nH]cn1)C(=O)N1CCC[C@H]1C(=O)N[C@@H](CCCNC(=N)N)C(=O)N[C@@H](CC(C)C)C(N)=O [compound 88] ({Orn(α-tetramethylguanidino)}-NNRPVYIPRPRPPHPRL-NH2; N-terminus and C-terminus assumed) | 62.5 (≈ 27.3 µM) | 0.125 (≈ 0.0546 µM) | 0.125 (≈ 0.0546 µM) | no induction of resistance was observed at all | 7.81 (≈ 3.41 µM) | 1.95 (≈ 0.851 µM) | 0.5 (≈ 0.218 µM) | – | 1.95 (≈ 0.851 µM) | half-life (in vitro): 15 min
160 (Dy675-[Orn]NNRPVYIPRPRPPHPRL-NH2) [compound 160] | – | – | – | – | – | – | – | – | – | in vivo biodistribution (fluorescence imaging) [5]: enriched in brain, liver, and both kidneys

From patent publication US20150315241A1, “Antibiotic Peptides” (priority 2007, published 2015)
